The source of these data is US10604487B2, “Pyridinol derivative or pharmaceutically acceptable salt thereof, and pharmaceutical composition containing same as active ingredient” (Research Cooperation Foundation of Yeungnam University, priority 2016, dated 2020).

In data set [1] the test system is TNF-α-induced adhesion of monocytes to intestinal epithelial cells. The data set can be described thus: Inhibitory activity against TNF-α-induced adhesion of monocytes (U937) to intestinal epithelial cells (HT-29). It is filed as cell-based, human. The conditions noted are these: Homo sapiens, 1 μM test drug; HT-29/U937 adhesion, 10 ng/mL TNF-α; read-out: Inhibitory activity (%). The method in brief:
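HT-29 monolayers pretreated 1 h with compound in 1% FBS medium, then exposed 3 h at 37 °C to BCECF-loaded U937 cells plus 10 ng/mL TNF-α. Non-adherent cells washed off; bound cells quantified by fluorescence after Triton X-100 lysis.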

A short description of data set [2]: Cytotoxicity test (MTT), HT-29. The class given is cell-based. The settings on record: human, HT-29, 48 h; for viability at 48 h, 0.01 µM / viability at 48 h, 0.1 µM / viability at 48 h, 1 µM / viability at 48 h, 10 µM / viability at 48 h, 100 µM: HT-29 cells (colorectal cancer cell line), read-out: Cell viability (% of control); for IC50 at 48 h: HT-29 cells, read-out: IC50 (μM), cytotoxicity. The method in brief: (§1)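 Cells seeded at 1×10⁵ cells/cm² and exposed to graded compound concentrations for 48 h at 37 °C in RPMI 1640 with 1% FBS. MTT (5 mg/mL) added for 4 h; formazan dissolved in DMSO and absorbance read at 540 nm.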

A short description of data set [3]: Cytotoxicity test (MTT), U937. It is filed as cell-based. The conditions noted are these: human, U937, 48 h; for viability at 48 h, 0.01 µM / viability at 48 h, 0.1 µM / viability at 48 h, 1 µM / viability at 48 h, 10 µM / viability at 48 h, 100 µM: U937 cells (monocytic blood cancer-derived cell line), read-out: Cell viability (% of control); for IC50 at 48 h: U937 cells. The method in brief: as §1

Bounds are passed on as bounds.

The viability is a read-out of living cells in per cent, often relative to untreated cells. One may read the IC50 as the point on the concentration scale where inhibition reaches its midpoint. In the case of `COC(=O)Nc1nc(C)c(O)c(C)c1C` [Compound 20-1, methyl (5-hydroxy-3,4,6-trimethylpyridin-2-yl)carbamate], the inhibition at 1 µM in data set [1] turned out to be 9.8%. Further, in data set [2], the viability at 48 h, 0.01 µM came to 89.7 ± 6.3%; the viability at 48 h, 0.1 µM amounted to 84.9 ± 1.9%; the viability at 48 h, 1 µM is 85 ± 3.4%; the viability at 48 h, 10 µM was 82.6 ± 1.3%. Also, in data set [2], the viability at 48 h, 100 µM came to 73.7 ± 4.5% and the IC50 at 48 h was > 100 µM. In data set [3], the viability at 48 h, 0.01 µM amounted to 97.5 ± 1.6%; the viability at 48 h, 0.1 µM worked out at 95.1 ± 5.3%; the viability at 48 h, 1 µM turned out to be 93.7 ± 1.2%; the viability at 48 h, 10 µM was 80.9 ± 12.8%. Also, in data set [3], the viability at 48 h, 100 µM came to 89.6 ± 1% and the IC50 at 48 h is > 100 µM.
Take `CCCCOC(=O)Nc1nc(C)c(O)c(C)c1C` [Compound 20-2, butyl (5-hydroxy-3,4,6-trimethylpyridin-2-yl)carbamate]: the inhibition at 1 µM in data set [1] amounted to 26.9%. In data set [2], the viability at 48 h, 0.01 µM came to 102 ± 1.4%; the viability at 48 h, 0.1 µM was determined as 102 ± 3.2%; the viability at 48 h, 1 µM was found to be 98.1 ± 3.4%; the viability at 48 h, 10 µM worked out at 98.3 ± 3.8%. Also, in data set [2], the viability at 48 h, 100 µM came out at 67.6 ± 1.9% and the IC50 at 48 h was > 100 µM. For the same molecule, in data set [3], the viability at 48 h, 0.01 µM amounted to 87.4 ± 1.3%; the viability at 48 h, 0.1 µM is 84.4 ± 2.3%; the viability at 48 h, 1 µM was 84.6 ± 2%; the viability at 48 h, 10 µM was determined as 80.7 ± 0.8%. Further, in data set [3], the viability at 48 h, 100 µM is 74.4 ± 3.8% and the IC50 at 48 h was > 100 µM.
Take `Cc1nc(NC(=S)Nc2ccccc2)c(C)c(C)c1O` [Compound 18-4, 1-(5-hydroxy-3,4,6-trimethylpyridin-2-yl)-3-phenylthiourea]: in data set [1], the inhibition at 1 µM came out at 49.7%. Moreover, in data set [2], the viability at 48 h, 0.01 µM was found to be 96.6 ± 2.1%; the viability at 48 h, 0.1 µM is 97 ± 4.4%; the viability at 48 h, 1 µM worked out at 99 ± 5%; the viability at 48 h, 10 µM is 96.6 ± 2.4%. Moreover, in data set [2], the viability at 48 h, 100 µM is 76 ± 4.9% and the IC50 at 48 h was > 100 µM. For the same molecule, in data set [3], the viability at 48 h, 0.01 µM was determined as 99.5 ± 2.1%; the viability at 48 h, 0.1 µM turned out to be 101 ± 1.9%; the viability at 48 h, 1 µM came to 96.7 ± 1.7%; the viability at 48 h, 10 µM was 96.1 ± 1.4%. Further, in data set [3], the viability at 48 h, 100 µM worked out at 70.6 ± 0.8% and the IC50 at 48 h was > 100 µM.
As for `Cc1cccc(C(C)(C)C)c1NC(=O)Nc1nc(C)c(O)c(C)c1C` [Compound 16-4, 1-(2-tert-butyl-6-methylphenyl)-3-(5-hydroxy-3,4,6-trimethylpyridin-2-yl)urea], in data set [1], the inhibition at 1 µM turned out to be 34.3%. Also, in data set [2], the viability at 48 h, 0.01 µM worked out at 76.6 ± 6.9%; the viability at 48 h, 0.1 µM turned out to be 76.8 ± 5%; the viability at 48 h, 1 µM is 74.7 ± 6%; the viability at 48 h, 10 µM amounted to 62.1 ± 2.9%. In addition, in data set [2], the viability at 48 h, 100 µM is 43.6 ± 1.8% and the IC50 at 48 h is 34.7 µM. Also, in data set [3], the viability at 48 h, 0.01 µM was 95 ± 2.9%; the viability at 48 h, 0.1 µM worked out at 91.2 ± 1.9%; the viability at 48 h, 1 µM came out at 91.3 ± 1.2%; the viability at 48 h, 10 µM turned out to be 85.4 ± 0.2%. In data set [3], the viability at 48 h, 100 µM was 75.5 ± 1.7% and the IC50 at 48 h is > 100 µM.
